test system: green peach aphid (Myzus persicae); assay: Myzus test (MYZUPE), sprayed aubergine plants; assay type: in vivo; conditions: application rate of 100 ppm, spray on aubergine plants, read-out: effect in % (aphids killed)
Description: Solvent: 3 parts by weight of dimethylformamide Emulsifier: 1 part by weight of polyoxyethylenealkyl phenyl ether
An appropriate preparation of active ingredient is prepared by mixing 1 part by weight of active ingredient with the stated amount of solvent and emulsifier and diluting the concentrate with water to the desired concentration.
Aubergine plants (Solanum melongena) infested by all stages of the green peach aphid (Myzus persicae) are sprayed with a preparation of active ingredient at the desired concentration.
After the desired time, the effect in % is determined; here, 100% means that all of the aphids have been killed. Conversely, 0% means that no aphids have been killed.

Question: For Cc1cncc(C(=O)Nc2cccnc2)c1 [I-10], which pest or weed control at 100 ppm is on record?
Answer: ≥ 80%

Question: With Cc1c(C(=O)Nc2cccnc2)cnn1-c1ncccc1Cl [I-1] as the compound, how does the pest or weed control at 100 ppm read?
Answer: ≥ 80%

same assay, conditions: application rate of 500 ppm, spray on aubergine plants, read-out: effect in % (aphids killed)

Question: With COc1ccc(Oc2ccc(Oc3ccc(C(=O)N(C)c4cccnc4)cn3)cc2)cc1 [I-131] as the compound, how does the pest or weed control at 500 ppm read?
Answer: ≥ 80%

Question: Which pest or weed control at 500 ppm does the source give for CCN(C(=O)c1ccc(Oc2ccc([N+](=O)[O-])cc2)nc1)c1cccnc1 [I-163] here?
Answer: ≥ 80%

Question: How did the pest or weed control at 500 ppm turn out when CN(C(=O)c1ccc(Oc2ccc(Cl)c(Cl)c2)nc1)c1cccnc1 [I-115] was run?
Answer: ≥ 80%

Question: How did the pest or weed control at 500 ppm turn out when CN(C(=O)c1cnc(Oc2ccc(C#N)cc2)c(Cl)c1)c1cccnc1 [I-149] was run?
Answer: ≥ 80%

Question: With O=C(Nc1cccnc1)c1ccc(N2CCCCC2)nc1 [I-205] as the compound, how does the pest or weed control at 500 ppm read?
Answer: ≥ 80%

Question: Which pest or weed control at 500 ppm does the source give for COc1cc(OC)nc(Sc2ccc(C(=O)N(C)c3cccnc3)cc2)n1 [I-177] here?
Answer: ≥ 80%

Question: For CN(C(=O)c1ccc(Oc2ccc(C(F)(F)F)cc2)nc1)c1cccnc1 [I-117], which pest or weed control at 500 ppm is on record?
Answer: ≥ 80%

Question: With O=C(Nc1cccnc1)c1ccc(Cn2nc(C(F)(F)F)nc2C(F)(F)F)cc1 [I-5] as the compound, how does the pest or weed control at 500 ppm read?
Answer: ≥ 80%

Question: CCCSCc1ccc(C(=O)Nc2cccnc2)cc1 [I-39] was tested. Which pest or weed control at 500 ppm did it give?
Answer: ≥ 80%

Question: For CN(C(=O)c1ccc(Cn2cnc(C(F)(F)F)n2)cc1)c1cccnc1 [I-25], which pest or weed control at 500 ppm is on record?
Answer: ≥ 80%

Question: How did the pest or weed control at 500 ppm turn out when Cc1cc(C)nc(Sc2ccc(C(=O)N(Cc3ccc([N+](=O)[O-])cc3)c3cccnc3)cn2)n1 [I-229] was run?
Answer: ≥ 80%

Question: How did the pest or weed control at 500 ppm turn out when COc1ccc(Oc2ccc(C(=O)N(C)c3cccnc3)cn2)cc1 [I-92] was run?
Answer: ≥ 80%

Question: Which pest or weed control at 500 ppm does the source give for O=C(Nc1cccnc1)c1ccc(SC(F)(F)F)cc1 [I-37] here?
Answer: ≥ 80%

Question: How did the pest or weed control at 500 ppm turn out when O=C(Nc1cccnc1)c1ccc(C(=O)N2CCCC2)cc1 [I-42] was run?
Answer: ≥ 80%

Question: With Cc1cc(C)nc(Sc2ccc(C(=O)N(C)c3cccnc3)cn2)n1 [I-104] as the compound, how does the pest or weed control at 500 ppm read?
Answer: ≥ 80%

Question: Which pest or weed control at 500 ppm does the source give for CN(C(=O)c1ccc(Oc2ccccc2Cl)nc1)c1cccnc1 [I-98] here?
Answer: ≥ 80%

Question: With CC(C)S(=O)(=O)c1ccc(Oc2ccc(C(=O)N(C)c3cccnc3)cn2)cc1 [I-130] as the compound, how does the pest or weed control at 500 ppm read?
Answer: ≥ 80%

Question: How did the pest or weed control at 500 ppm turn out when CCN(C(=O)c1ccc(Sc2ncccn2)nc1)c1cccnc1 [I-196] was run?
Answer: ≥ 80%

Question: For O=C(Nc1cccnc1)c1ccc(Cn2nc(C(F)(F)F)nc2C(F)(F)F)nc1 [I-6], which pest or weed control at 500 ppm is on record?
Answer: ≥ 80%

Question: For Cc1ccc(C(=O)N(C)c2cccnc2)cn1 [I-43], which pest or weed control at 500 ppm is on record?
Answer: ≥ 80%

Question: Which pest or weed control at 500 ppm does the source give for CC(C)NC(=O)c1cccc(C(=O)N(C)c2cccnc2)c1 [I-75] here?
Answer: ≥ 80%

Question: How did the pest or weed control at 500 ppm turn out when C=CCN(C(=O)c1ccc(Sc2nc(C)cc(C)n2)nc1)c1cccnc1 [I-224] was run?
Answer: ≥ 80%

Question: How did the pest or weed control at 500 ppm turn out when CS(=O)(=O)c1ccc(Oc2ccc(C(=O)Nc3cccnc3)cn2)cc1 [I-217] was run?
Answer: ≥ 80%

Question: CCN(C(=O)c1ccc(Sc2nc(C)cc(C)n2)cc1)c1cccnc1 [I-180] was tested. Which pest or weed control at 500 ppm did it give?
Answer: ≥ 80%

Question: Which pest or weed control at 500 ppm does the source give for CN(C(=O)c1ccc(Sc2ccc(Cl)cc2)nc1)c1cccnc1 [I-107] here?
Answer: ≥ 80%

Question: For CN(C(=O)c1ccc(Oc2ccc(Cl)cc2)nc1)c1cccnc1 [I-91], which pest or weed control at 500 ppm is on record?
Answer: ≥ 80%

Question: CN(C(=O)c1cnc(Oc2ccc(C(F)(F)F)cc2)c(Cl)c1)c1cccnc1 [I-146] was tested. Which pest or weed control at 500 ppm did it give?
Answer: ≥ 80%

Question: With O=C(Nc1cccnc1)c1ccc(NCC2CC2)nc1 [I-210] as the compound, how does the pest or weed control at 500 ppm read?
Answer: ≥ 80%

Question: CC(=O)N(C)c1ccc(C(=O)Nc2cccnc2)cc1 [I-252] was tested. Which pest or weed control at 500 ppm did it give?
Answer: ≥ 80%

Question: With CSc1ccc(C(=O)N(C)c2cccnc2)cn1 [I-110] as the compound, how does the pest or weed control at 500 ppm read?
Answer: ≥ 80%

Question: For CSCc1ccc(C(=O)N(C)c2cccnc2)cn1 [I-64], which pest or weed control at 500 ppm is on record?
Answer: ≥ 80%

Question: For CCN(C(=O)c1ccc(SC)c(F)c1)c1cccnc1 [I-67], which pest or weed control at 500 ppm is on record?
Answer: ≥ 80%

Question: With Cc1ccnc(Sc2ncc(C(=O)N(C)c3cccnc3)cc2Cl)n1 [I-166] as the compound, how does the pest or weed control at 500 ppm read?
Answer: ≥ 80%

Question: For CC#CCN(C(=O)c1ccc(Sc2nc(C)cc(C)n2)nc1)c1cccnc1 [I-226], which pest or weed control at 500 ppm is on record?
Answer: ≥ 80%

same assay, conditions: read-out: effect in % (aphids killed)

Question: Which pest or weed control at 500 ppm does the source give for CN(C(=O)c1ccc(C(F)(F)C(F)(F)C(F)(F)F)cc1)c1cccnc1 [I-47] here?
Answer: ≥ 80%

From patent publication US20100305124A1, “Acylated Aminopyridine and Aminopyridazine Insecticides” (BAYER CROPSCIENCE AG, priority 2009, published 2010)
